Reference: patent US20230167124A1, “Methods for the Production of Nickel (II) Etioporphyrin-I” (Adgero Biopharmaceuticals Holdings, Inc., priority 2020, published 2023)

Experiment: Solubility of etioporphyrin-I in chloroform
Format: physicochemical
Conditions: solvent chloroform
Protocol: In addition to the problems associated with the isolation of the dipyrromethenes, another difficulty in the syntheses of etioporphyrin I is the work up and purification procedures for isolating etioporphyrin-I. The coupling reaction of the dipyrromethenes (see Scheme 3, (5) and (6)) is carried out in refluxing formic acid. Generally, this gives a tarry, black reaction mixture that yield about 20-35% of etioporphyrin-I after extensive chromatography. On small scales (1-40 g of dipyrromethenes), dissolution of the tarry reaction mixture in chloroform, followed by neutralization and chromatography on large amounts of silica affords the desired porphyrin. […] During this process it is not uncommon for etioporphyrin-I to precipitate from solution onto the silica gel, making column chromatography (even on small scale (10 g)) difficult. Clearly, such a process is not feasible economically on large scale.

- solubility in chloroform: < 10000 µg/mL
Substance: etioporphyrin-I
